Where two headings read alike, the source gives them in different places.
Columns and labels:
NMDA receptor = NMDA receptor binding assay using [^3 H]CPP as antagonist ligand; conditions: for IC50: [^3 H]CPP
Text: The activity of the compounds of the formula I is shown in vitro in an NMDA receptor binding assay based on the use of [^3 H]CPP as antagonist ligand in a manner essentially as set out by B. E. Murphy et al in J. Pharm.

[1] = Observation of drug effects or normal behavior in rats dosed with NMDA
[2] = tested on: NMDA-Induced Subconvulsant Behavior; experiment: Inhibitory effects in NMDA-induced subconvulsant behavior (tail biting) in Fisher rats; type: in vivo; conditions: for % Responders: 30 min before 50 mg/kg IV NMDA; for Latency (min ± S.E.) / % I: 30 min before NMDA; for Latency (min ± S.E.): 60 minutes=maximum; for % I: [1 - % test responders/% control responders] × 100
Method: In a modification of those methods, subconvulsant tail biting was induced in Fisher rats by intravenous injection of 50 mg/kg NMDA. The incidence (%) and response time (60 minutes=maximum) of control and drug treated rats (I.P., 30 minutes before NMDA) were compared. The inhibitory effects of 2-amino-7-phosphonoheptanoic acid and Example VIII are shown in Table 2 (% responders and time (latency in minutes)).
*Rats were dosed IP, 2 mls/kg 30 min before NMDA.
**% I = [1 - % test responders/% control responders] × 100.

[3] = tested on: NMDA-induced seizure and death; experiment: Inhibition of NMDA-induced seizures and death in mice; type: in vivo, male CF-1 mice; conditions: Mus musculus
Method: Intraperitoneal injection of N-methyl-D-aspartic acid (NMDA) has been previously reported to induce clonic seizures in C57BL/6J mice (Bernard, P.S. et al, Models of N-methyl-D -aspartate antagonism: A comparison of 2-amino-7-phosphonoheptanoic acid with muscle relaxant drugs, 15th Annual Meeting, International Society for Neuroscience, 1985). In a modified version of the above protocol, male CF-1 mice received an intravenous injection of 25 mg/kg NMDA--behind the lateral aspect of the right eye. This induced a rapidly onsetting seizure followed shortly thereafter by death. […] ED50 were determined for inhibition of seizures and death through comparison of drug treatment groups (n=10) with their respective vehicle controls (n=10).

[4] = 0.5 h, IV, five minutes prior to 25 mg/kg IV NMDA, survivors at thirty minutes, read-out: Inhibition of Death ED50
[5] = IV, five minutes prior to 25 mg/kg IV NMDA, read-out: Inhibition of Seizures ED50

## NC(C(=O)O)c1cccc(P(=O)(O)O)c1 (racemic) [Example VI A, (±)-α-Amino-3-Phosphonobenzeneacetic Acid]
NMDA receptor
  IC50: 17.9 µM

## NC(C(=O)O)c1ccc(CP(=O)(O)O)cc1 (racemic) [Example VIII, (±)-α-Amino-4-(Phosphonomethyl)Benzeneacetic Acid]
[1]; 37 mg/kg and 25 mg/kg IP
  drug induced behavioral effects: no drug induced behavioral effects
NMDA receptor
  IC50: 0.99 µM
NMDA receptor; in words, test not given
  most active of the most preferred compounds: most active compound
[2]; 25 mg/kg IP, phosphate buffer control 9/10
  % Responders: 2/9
[2]; 25 mg/kg IP, p < 0.01, phosphate buffer 24.8 ± 4.9
  Latency (min ± S.E.): 51.6 ± 5.6 min
[2]; 25 mg/kg IP
  % I: 77.8%
[2]; 37 mg/kg IP, phosphate buffer control 9/10
  % Responders: 1/10
[2]; 37 mg/kg IP, p < 0.001, phosphate buffer 24.8 ± 4.9
  Latency (min ± S.E.): 55.5 ± 4.5 min
[2]; 37 mg/kg IP
  % I: 88.9%
[2]; in words, Table 2
  inhibitory effects compared with 7-APH: inhibitory effects similar in potency and efficacy to 7-APH
[3]; [4]
  ED50: 7.6 mg/kg
[3]; [5]
  ED50: > 30 mg/kg

## NC(CCCCCP(=O)(O)O)C(=O)O (centres unmarked) [APH, 2-amino-7-phosphonoheptanoic acid, reference compound]
[1]; 10 mg/kg IP
  drug induced behavioral effects: no drug induced behavioral effects
[1]; 30 mg/kg IP
  ataxia: no ataxia
[1]; 30 mg/kg IP, versus controls
  exploratory behavior: slightly less exploratory than controls
NMDA receptor
  IC50: 0.8 µM
[2]; 10 mg/kg IP, saline control 9/10
  % Responders: 6/10
[2]; 10 mg/kg IP, p < 0.001, saline 15.8 ± 5.3
  Latency (min ± S.E.): 43.3 ± 5.8 min
[2]; 10 mg/kg IP
  % I: 33.3%
[2]; 30 mg/kg IP, saline control 9/11
  % Responders: 1/10
[2]; 30 mg/kg IP, p < 0.01, saline 33.1 ± 5.8
  Latency (min ± S.E.): 59.0 ± 1.0 min
[2]; 30 mg/kg IP
  % I: 87.8%
[3]; iv, 0.5 h, read-out: Inhibition of Death ED50
  ED50: 30 mg/kg
[3]; iv, read-out: Inhibition of Seizures ED50
  ED50: > 30 mg/kg

## NC(C(=O)O)c1cccc(CP(=O)(O)O)c1 (stereo not drawn) [Example II, Benzeneacetic Acid, α-Amino-3-(Phosphonomethyl)-]
NMDA receptor
  IC50: 11.8 µM

## NC(Cc1cccc(CP(=O)(O)O)c1)C(=O)O (centres unmarked) [Example III]
NMDA receptor
  IC50: 3.56 µM
[3]; [4]
  ED50: 37 mg/kg
[3]; [5]
  ED50: ~60 mg/kg

— US5175153A, “Substituted alpha-amino acids having pharmaceutical activity” (Warner-Lambert Company, priority 1988, dated 1992)
